This assay deals with L. donovani-infected THP-1 macrophages, intracellular amastigote imaging. Briefly: intracellular L. donovani amastigote inhibition, imaging, THP-1 host macrophages, host toxicity (AID 1159564).
[1] abbreviates: measured here: THP-1 host cell toxicity.
Where [2] appears, read: measured here: amastigotes per macrophage.

Each structure is given as a SMILES string. Active and inactive are the calls of the source. No rule for the calls is given here.

As for `CCn1c(NC(=O)Cc2ccc(F)cc2)nc2ccccc21`, the concentration for half-maximal inhibition (IC50) is 10 µM. Moreover, the IC50 under setting [1] is > 50 µM. Further, the half-inhibitory concentration (IC50) under setting [2] was found to be 6.3 µM.
For `Cn1nccc1NC(=O)Cn1ccc(-c2ccncc2)n1`, the IC50 was > 50 µM (inactive). The half-maximal inhibitory concentration (IC50) under setting [1] is > 50 µM. The IC50 under setting [2] was > 50 µM.
For `CC(=O)NCCNc1cc(-c2ccnc(Nc3cccc(Cl)c3)n2)ccn1`, the half-inhibitory concentration (IC50) was 0.25 µM. The compound also gave an IC50 under setting [1] of 0.1 µM. The compound also had an IC50 under setting [2] of 0.1 µM.
Consider `CC1=NN(C(=O)CCn2cnc([N+](=O)[O-])n2)C(O)(C(F)(F)F)C1` (stereo unspecified), for which the IC50 is > 50 µM (inactive). The IC50 under setting [1] was > 50 µM. Under setting [2], the IC50 is > 50 µM.
With `COc1ccc(S(=O)(=O)Nc2ccccc2OC)cc1NC(=O)CCCc1c[nH]c2ccccc12`, the IC50 is > 50 µM (inactive). The half-maximal inhibitory concentration (IC50) under setting [1] was > 50 µM. Further, the IC50 under setting [2] is > 50 µM.
In the case of `Cc1ccc2nc(N(Cc3cccnc3)C(=O)CCc3ccccc3)sc2c1`, the IC50 is > 50 µM (inactive). Besides, under setting [1], the IC50 was > 50 µM. Under setting [2], the half-inhibitory concentration (IC50) is > 50 µM.
On to `COc1ccc(NS(=O)(=O)c2cccc(NC(=O)c3cc(F)cc(F)c3)c2)cc1`, for which the IC50 is > 50 µM (inactive). Further, the IC50 under setting [1] is > 50 µM. This compound also gave an IC50 under setting [2] of 20 µM.
For `Cc1occc1C(=O)Nc1ccccc1C(=O)Nc1nccs1` the same measures were > 50 µM (inactive), > 50 µM and > 50 µM.
Take `CC(=O)Nc1nc(-c2cc(C)ccc2C)c(C)s1`: the IC50 is > 50 µM (inactive). The half-inhibitory concentration (IC50) under setting [1] was > 50 µM. Under setting [2], the IC50 was 32 µM.
In the case of `O=C(Nc1ccc(C(=O)N2CCCC2c2ccc3c(c2)OCCCO3)cc1)c1ccco1` (stereo unspecified), the IC50 was 6.3 µM. For the same compound, the IC50 under setting [1] was > 50 µM. This compound returned an IC50 under setting [2] of 3.2 µM.
Consider `Cc1cc(NC(=O)C2CC2)ccc1OC1CCN(Cc2ccco2)CC1`, for which the 50% inhibitory concentration (IC50) was 20 µM. This compound also showed an IC50 under setting [1] of 13 µM. Besides, the concentration for half-maximal inhibition (IC50) under setting [2] came to 13 µM.
Regarding `Cc1c(C(=O)NCCCCn2ccnc2)oc2c(C)cccc12`, the IC50 was > 50 µM (inactive). Also, the IC50 under setting [1] was > 50 µM. In addition, under setting [2], the half-inhibitory concentration (IC50) was > 50 µM.
In the case of `CC(C)c1sc(Cl)nc1C(=O)NCCc1nc(C(=O)Nc2ccc3c(c2)OCO3)cs1`, the IC50 is 5 µM. The 50% inhibitory concentration (IC50) under setting [1] was > 50 µM. In addition, under setting [2], the IC50 came to 2.5 µM.
For `NCc1csc(Nc2cc(Oc3ccccc3)ncn2)n1`, the IC50 was 25 µM. Further, the IC50 under setting [1] is > 50 µM. Under setting [2], the half-maximal inhibitory concentration (IC50) stood at 25 µM.
In the case of `CCCCN(C(=O)c1ccc(NC(=O)C(C)C)cc1)c1ccccc1`, the IC50 is 5 µM. Under setting [1], the IC50 was > 50 µM. Besides, under setting [2], the concentration for half-maximal inhibition (IC50) came to 3.2 µM.
For `O=C(CN(Cc1ccccn1)Cc1ccccn1)NCc1csc(-c2cccs2)n1`, the IC50 is 6.3 µM. Besides, under setting [1], the IC50 was > 50 µM. The same compound gave an IC50 under setting [2] of 3.2 µM.
As to `COCc1cnc2c(c1SCc1c(F)cccc1Cl)c(=O)n(C)c(=O)n2C`, the IC50 is 5 µM. Also, the half-inhibitory concentration (IC50) under setting [1] is > 50 µM. This compound gave an IC50 under setting [2] of 5 µM.
For `COc1ccc(OC)c2c(=O)c(Cc3ccccc3)c(C)[nH]c12`, the half-maximal inhibitory concentration (IC50) is 4 µM. Further, under setting [1], the IC50 was > 50 µM. This compound registered a half-inhibitory concentration (IC50) under setting [2] of 2.5 µM.
The corresponding values for `COc1ccc(C2C3CCCCC3(O)CCN2CC(=O)Nc2ccc(Cl)cc2Cl)cc1` (stereo unspecified) are 2.5 µM, > 50 µM and 0.79 µM.
For `Oc1c(-c2n[nH]c(Cc3ccc(F)cc3)n2)ncc2cccnc12` the same measures were 1 µM, 20 µM and 1 µM.
On to `CN(C)Cc1ccc(N2CCC(NS(=O)(=O)c3ccc(Cl)cc3)CC2)cc1`, for which the IC50 is > 50 µM (inactive). The IC50 under setting [1] was found to be 25 µM. The IC50 under setting [2] was 25 µM.
On to `NS(=O)(=O)c1ccc(CNC(=O)c2ccc([N+](=O)[O-])s2)cc1`, for which the half-inhibitory concentration (IC50) was 25 µM. Further, the IC50 under setting [1] stood at 40 µM. This compound also returned a 50% inhibitory concentration (IC50) under setting [2] of 13 µM.
For `CCc1cccc(CC)c1-n1c(SCC(=O)N2CC(=O)Nc3ccccc32)nnc1-c1cccnc1` the same measures were > 50 µM (inactive), > 50 µM and > 50 µM.
For `COc1ccc(-c2cc(C)no2)cc1S(=O)(=O)Nc1ccc(C)c(C)c1` the same measures were 2.5 µM, > 50 µM and 2 µM.
On to `COc1cccc(S(=O)(=O)Nc2ccc3c(c2)CC(N2CCC(NC(=O)C4CC4)CC2)C3)c1` (stereo unspecified), for which the IC50 is > 50 µM (inactive). Besides, under setting [1], the half-inhibitory concentration (IC50) was > 50 µM. Also, the IC50 under setting [2] worked out at 25 µM.
For `COc1ccc2ncc(Cl)c(CCN3CC[C@H](NCc4cc5c(cn4)OCS5)[C@@H](O)C3)c2n1`, the IC50 is 1 µM. The IC50 under setting [1] was 6.3 µM. The same compound displayed a 50% inhibitory concentration (IC50) under setting [2] of 0.5 µM.
The corresponding values for `COc1ccc(CN2CCCCC2c2nc(-c3cccnc3)no2)cc1` (stereo unspecified) are > 50 µM (inactive), > 50 µM and > 50 µM.

Source of the values: PubChem BioAssay AID1159564 (GlaxoSmithKline (GSK), 2015).
